Data from PubChem BioAssay (NCI).
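Five compound concentrations were applied to cells in 96-well plates for 48 hours; endpoints were derived by simple linear interpolation of the resulting dose-response curve. At the TGI there is no net growth.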 Where a SMILES comes first, the peptide text is derived from it. [ ]: non-standard residue; d: D form. The star is where a group is joined. ξ: configuration not given here. ξF = NC(Cc1ccccc1)C(=O)O; Cbz = O=C(OCc1ccccc1)*; Aib = CC(C)(N)C(=O)O

Key:
Assay in all cases: DTP human tumour cell line panel, 48 h
[1] = tested on: BT-549 breast
[2] = tested on: COLO 205 colon
[3] = tested on: DU-145 prostate
[4] = tested on: HCT-15 colon
[5] = tested on: HS 578T breast
[6] = tested on: K-562 leukemia
[7] = tested on: MALME-3M melanoma
[8] = tested on: NCI-H23 lung
[9] = tested on: PC-3 prostate
[10] = tested on: SK-MEL-5 melanoma
[11] = tested on: UACC-62 melanoma
[12] = tested on: ACHN renal
[13] = tested on: HCC-2998 colon

SMILES | TGI [1] [µM] | TGI [2] [µM] | TGI [3] [µM] | TGI [4] [µM] | TGI [5] [µM] | TGI [6] [µM] | TGI [7] [µM] | TGI [8] [µM] | TGI [9] [µM] | TGI [10] [µM] | TGI [11] [µM] | TGI [12] [µM] | TGI [13] [µM]
CC(C)CCCC(C)[C@H]1CC[C@H]2n3c(nc4ccccc43)CCC[C@]12C (stereo partly drawn) | 35.7 | 23.7 | 58.5 | 33.4 | 63.8 | 36.5 | 46.1 | 34.4 | 42.9 | 32.8 | 30.8 | – | –
O=C(Oc1c(Cl)cc(C2(c3cc(Cl)c(OC(=O)c4ccccc4)c(Cl)c3)CCCCC2)cc1Cl)c1ccccc1 | 27.9 | 19.6 | 36.7 | 24.6 | 32.4 | 31 | – | 23.4 | 21.3 | 22.9 | 22.5 | 17.6 | 22.9
C=C1C(=O)O[C@@H]2/C=C(\C)CC/C=C(\C)CC[C@@]12O | 7.81 | 4.3 | 4.93 | 9.27 | 22.7 | 12.6 | 3.05 | 4.32 | 15.6 | 15.5 | 23.6 | 3.36 | 12.7
CCc1n[nH]c(=O)n1/N=C(\C)c1ccc([N+](=O)[O-])cc1 | > 100 | > 100 | > 100 | > 100 | > 100 | > 100 | – | > 100 | > 100 | > 100 | > 100 | – | –
COc1cc(/C=C2\N=C(c3ccccc3)N(c3ccc(C(=O)c4ccccc4)cc3N3C(=O)/C(=C/c4ccc(O)c(OC)c4)N=C3c3ccccc3)C2=O)ccc1O | > 100 | 32.3 | 48.6 | 40.3 | 46.6 | 53 | – | – | 26.7 | 20.2 | 30.8 | 57.2 | 9.69
CCCCN1C(=O)c2c(Br)sc(Br)c2C1=O | > 100 | 39.1 | > 100 | > 100 | – | > 100 | > 100 | > 100 | > 100 | > 100 | > 100 | > 100 | > 100
Cc1[nH]c(=O)[nH]c(=O)c1/C=C/C(=O)NC(CO)CS(=O)CS(C)=O (stereo not drawn) | – | 132 | – | 408 | – | 135 | 57.9 | 43.7 | – | 76.9 | 56.3 | – | 53.8
Cc1cc2c(c(O)c1-c1c(C)cc(O)c3c1C(=O)C=CC3=O)C(=O)C=CC2=O | > 25.5 | 0.656 | 4.73 | – | 32.9 | 0.23 | – | 18.4 | 19 | 14.5 | 4.98 | 1.44 | 10.1
COc1ccc(-c2nc3c(nc2-c2ccc(OC)cc2)C(N)=NS(=O)(=O)N3)cc1 | – | > 100 | – | > 100 | – | > 100 | > 100 | > 100 | – | > 100 | > 100 | > 100 | > 100
CC(=O)O[C@H]1CC[C@H]2[C@@H]3CCC4=CC(=O)C=C[C@]4(O)[C@H]3CC[C@]12C | > 79.8 | > 55.6 | > 100 | > 100 | – | 27.5 | – | > 62.4 | > 93.1 | 23.4 | > 90.2 | > 100 | > 100
CC(=O)Nc1cccc(N2C(=O)/C(=C\c3cccc(Oc4ccccc4)c3)S(=O)(=O)C2c2ccccc2)c1 (stereo not drawn) | > 100 | > 100 | > 100 | > 100 | – | 79.2 | > 100 | > 100 | > 100 | > 100 | > 100 | > 100 | > 100
CCOC(=O)Cn1c2ccc(Br)cc2c2nc3ccccc3nc21 | – | > 100 | > 100 | – | > 100 | > 100 | – | > 100 | > 100 | > 100 | > 100 | > 100 | –
COc1ccc(NC(C)=O)cc1N1C(=O)/C(=C\c2ccccc2)SC1c1cc(OC)c(OC)c(OC)c1 (stereo not drawn) | > 100 | > 100 | 80.6 | 58.8 | – | > 100 | 56.2 | > 100 | > 100 | 37 | > 100 | > 100 | 47.4
CCOC(=O)CNC(=O)C(Cc1ccccc1)NC(=O)C(C)(C)NC(=O)OCc1ccccc1 (stereo not drawn) (Cbz-[Aib]-[ξF]-Gly-OEt) | – | > 100 | > 100 | > 100 | – | > 100 | 36.2 | – | > 100 | > 100 | 40.9 | > 100 | > 100
C[Si](C)(C)c1ccc(-c2c3ccc(-c4cc(Br)cc(Br)c4)nc3nc3nc(-c4cc(Br)cc(Br)c4)ccc23)cc1 | > 100 | > 100 | > 100 | > 100 | – | – | > 100 | > 100 | > 100 | > 100 | > 100 | > 100 | > 100
CSc1nc(CO)c(CO)n1C | – | > 100 | – | > 100 | – | > 100 | – | > 100 | – | > 100 | > 100 | – | > 100
CC1(CO)COS(=O)OC1 (stereo not drawn) | – | > 100 | > 100 | > 100 | > 100 | – | – | > 100 | > 100 | > 100 | – | > 100 | > 100
Nc1ccc(O)c2c1C(=O)c1c(N)ccc(O)c1C2=O | – | > 100 | – | > 100 | – | > 100 | > 100 | > 100 | – | > 100 | > 100 | > 100 | > 100
O=C(NC(Cc1ccc(Br)cc1)C(=O)O)c1ccc(I)cc1 (stereo not drawn) | – | > 100 | – | > 100 | – | > 100 | > 100 | > 100 | – | > 100 | > 100 | – | > 100
CC(C)(C)OC(=O)N1C(OP(=O)(Oc2ccccc2)Oc2ccccc2)=CSc2ccccc21 | > 100 | 49.6 | > 100 | > 100 | > 100 | > 100 | 88.1 | > 100 | > 100 | > 100 | > 100 | > 100 | > 100
